Assay results: ChEMBL document CHEMBL1201862, “PubChem BioAssay data set” (2004)
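All cell lines were grown in 96-well plates and treated with compound for 48 hours. At the GI50, growth is halved.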 Active and inactive are the calls of the source. Rule as the data show it: active = GI50 up to about 1.1 µM and inactive = higher.

How the values were obtained:
Assay in all cases: NCI tumour cell line growth inhibition, 48 h
BT-549 = test system: BT-549
U-251 = test system: U-251
SK-MEL-28 = test system: SK-MEL-28
RXF 393 = test system: RXF 393
HCT-15 = test system: HCT-15
CCRF-CEM = test system: CCRF-CEM
DU-145 = test system: DU-145
SR = test system: SR
EKVX = test system: EKVX
M14 = test system: M14
RPMI-8226 = test system: RPMI-8226
SW-620 = test system: SW-620
SF-539 = test system: SF-539
CAKI-1 = test system: CAKI-1
HT-29 = test system: HT-29
OVCAR-4 = test system: OVCAR-4
PC-3 = test system: PC-3
K562 = test system: K562
MDA-N = test system: MDA-N
SF-295 = test system: SF-295
MOLT-4 = test system: MOLT-4
MCF7 = test system: MCF7
HL-60 = test system: HL-60
SK-MEL-5 = test system: SK-MEL-5
HCT-116 = test system: HCT-116
NCI/ADR-RES = test system: NCI/ADR-RES
786-0 = test system: 786-0
NCI-H226 = test system: NCI-H226
HOP-62 = test system: HOP-62
SN12C = test system: SN12C
OVCAR-8 = test system: OVCAR-8
NCI-H460 = test system: NCI-H460
IGROV-1 = test system: IGROV-1
NCI-H522 = test system: NCI-H522
SF-268 = test system: SF-268
HCC 2998 = test system: HCC 2998
Malme-3M = test system: Malme-3M
KM12 = test system: KM12
NCI-H23 = test system: NCI-H23
HOP-92 = test system: HOP-92
UACC-257 = test system: UACC-257
COLO 205 = test system: COLO 205
TK-10 = test system: TK-10
MDA-MB-231 = test system: MDA-MB-231
MDA-MB-435 = test system: MDA-MB-435
OVCAR-3 = test system: OVCAR-3
SNB-19 = test system: SNB-19
A549 = test system: A549
ACHN = test system: ACHN
Hs-578T = test system: Hs-578T
LOX IMVI = test system: LOX IMVI
UO-31 = test system: UO-31
SK-MEL-2 = test system: SK-MEL-2
OVCAR-5 = test system: OVCAR-5
SNB-75 = test system: SNB-75
A498 = test system: A498
UACC-62 = test system: UACC-62
SK-OV-3 = test system: SK-OV-3
T47D = test system: T47D

Measured: GI50

CCOc1nc(-c2ccccc2)cc(-c2ccc(N3CCOCC3)cc2)c1C#N
> 100 µM: HCT-15
inactive: BT-549 > 100 µM | U-251 > 100 µM | SK-MEL-28 > 100 µM | RXF 393 > 100 µM | CCRF-CEM > 100 µM | DU-145 > 100 µM | SR > 100 µM | EKVX > 100 µM | M14 > 100 µM | RPMI-8226 77.4 µM | SW-620 > 100 µM | SF-539 > 100 µM | CAKI-1 > 100 µM | HT-29 > 100 µM | OVCAR-4 > 100 µM | PC-3 > 100 µM | K562 > 100 µM | MDA-N > 100 µM | SF-295 7.35 µM | MOLT-4 > 100 µM | MCF7 > 100 µM | HL-60 > 100 µM | SK-MEL-5 42.5 µM | HCT-116 > 100 µM | NCI/ADR-RES > 100 µM | 786-0 > 100 µM | NCI-H226 > 100 µM | HOP-62 > 100 µM | SN12C > 100 µM | OVCAR-8 > 100 µM | NCI-H460 > 100 µM | IGROV-1 > 100 µM | NCI-H522 > 100 µM | SF-268 > 100 µM | HCC 2998 > 100 µM | Malme-3M > 100 µM | KM12 > 100 µM | NCI-H23 > 100 µM | HOP-92 > 100 µM | UACC-257 19.1 µM | COLO 205 > 100 µM | TK-10 > 100 µM | MDA-MB-231 > 100 µM | MDA-MB-435 > 100 µM | OVCAR-3 > 100 µM | SNB-19 > 100 µM | A549 > 100 µM | ACHN > 100 µM | Hs-578T > 100 µM | LOX IMVI > 100 µM | UO-31 > 100 µM | SK-MEL-2 > 100 µM | OVCAR-5 > 100 µM | SNB-75 > 100 µM | A498 > 100 µM

C1=N\c2ccc(cc2)/N=C\c2ccccc2OCc2cccc(n2)COc2ccccc2/1
inactive: BT-549 > 100 µM | U-251 45 µM | RXF 393 5.19 µM | CCRF-CEM > 100 µM | DU-145 > 100 µM | SR > 100 µM | EKVX > 100 µM | M14 > 100 µM | SW-620 > 100 µM | SF-539 10.7 µM | CAKI-1 > 100 µM | HT-29 > 100 µM | OVCAR-4 > 100 µM | PC-3 > 100 µM | K562 > 100 µM | MDA-N > 100 µM | SF-295 76.9 µM | MOLT-4 > 100 µM | MCF7 > 100 µM | HL-60 > 100 µM | SK-MEL-5 > 100 µM | HCT-116 > 100 µM | NCI/ADR-RES > 100 µM | 786-0 45.5 µM | NCI-H226 > 100 µM | HOP-62 30.1 µM | SN12C > 100 µM | OVCAR-8 > 100 µM | NCI-H460 > 100 µM | IGROV-1 75.2 µM | NCI-H522 > 100 µM | UACC-62 > 100 µM | HCC 2998 > 100 µM | Malme-3M > 100 µM | SK-OV-3 > 100 µM | KM12 > 100 µM | NCI-H23 > 100 µM | HOP-92 > 100 µM | UACC-257 > 100 µM | COLO 205 > 100 µM | TK-10 > 100 µM | MDA-MB-231 78.3 µM | MDA-MB-435 > 100 µM | OVCAR-3 > 100 µM | SNB-19 21.1 µM | A549 > 100 µM | ACHN 61.4 µM | LOX IMVI > 100 µM | UO-31 > 100 µM | SK-MEL-2 > 100 µM | OVCAR-5 > 100 µM | T47D > 100 µM | A498 > 100 µM
> 100 µM: HCT-15

CC(=O)O[C@H]1/C(=C/c2ccc(N(C)C)cc2)C[C@H]2[C@@H]3CC=C4C[C@@H](N5CCCC5)CC[C@]4(C)[C@H]3CC[C@]12C
inactive: BT-549 > 100 µM | U-251 > 100 µM | SK-MEL-28 > 100 µM | RXF 393 > 100 µM | DU-145 > 100 µM | SR 40 µM | EKVX > 100 µM | M14 > 100 µM | RPMI-8226 > 100 µM | SW-620 > 100 µM | SF-539 > 100 µM | HT-29 63.2 µM | PC-3 > 100 µM | K562 > 100 µM | SF-295 > 100 µM | MOLT-4 > 100 µM | MCF7 > 100 µM | HL-60 > 100 µM | SK-MEL-5 > 100 µM | HCT-116 > 100 µM | NCI/ADR-RES > 100 µM | 786-0 > 100 µM | NCI-H226 > 100 µM | HOP-62 > 100 µM | SN12C > 100 µM | OVCAR-8 > 100 µM | NCI-H460 61.9 µM | IGROV-1 > 100 µM | SF-268 > 100 µM | UACC-62 > 100 µM | Malme-3M > 100 µM | SK-OV-3 > 100 µM | NCI-H23 > 100 µM | HOP-92 > 100 µM | UACC-257 > 100 µM | COLO 205 > 100 µM | TK-10 > 100 µM | MDA-MB-231 > 100 µM | OVCAR-3 > 100 µM | SNB-19 > 100 µM | A549 > 100 µM | ACHN > 100 µM | Hs-578T > 100 µM | LOX IMVI 35.6 µM | UO-31 > 100 µM | SK-MEL-2 > 100 µM | OVCAR-5 > 100 µM | T47D 65.6 µM | SNB-75 > 100 µM | A498 > 100 µM
> 100 µM: HCT-15

Cc1cccc2c(N)c3cccc(C(=O)NCCN4CCOCC4)c3nc12
inactive: BT-549 1.93 µM | SK-MEL-28 1.45 µM | NCI/ADR-RES 4.35 µM | HCC 2998 1.48 µM | HOP-92 3.48 µM | TK-10 2.1 µM | OVCAR-3 1.47 µM | A498 1.31 µM
0.461 µM: HCT-15
active: U-251 0.531 µM | RXF 393 0.697 µM | CCRF-CEM 0.248 µM | DU-145 0.482 µM | SR 0.274 µM | EKVX 0.664 µM | M14 0.495 µM | RPMI-8226 0.493 µM | SW-620 0.166 µM | SF-539 0.171 µM | CAKI-1 0.675 µM | HT-29 0.116 µM | OVCAR-4 0.762 µM | PC-3 0.436 µM | K562 0.203 µM | MDA-N 0.6 µM | SF-295 0.318 µM | MOLT-4 0.0278 µM | MCF7 0.265 µM | HL-60 0.362 µM | SK-MEL-5 0.853 µM | HCT-116 0.0889 µM | 786-0 0.218 µM | HOP-62 0.363 µM | SN12C 0.364 µM | OVCAR-8 0.249 µM | NCI-H460 0.605 µM | IGROV-1 0.224 µM | NCI-H522 0.182 µM | SF-268 0.0603 µM | UACC-62 0.984 µM | Malme-3M 0.28 µM | SK-OV-3 1.05 µM | KM12 0.301 µM | NCI-H23 0.33 µM | UACC-257 0.912 µM | COLO 205 0.294 µM | MDA-MB-231 0.759 µM | MDA-MB-435 0.57 µM | SNB-19 0.236 µM | A549 0.192 µM | ACHN 0.101 µM | Hs-578T 0.0849 µM | LOX IMVI 0.23 µM | UO-31 0.46 µM | SK-MEL-2 1.11 µM | OVCAR-5 0.627 µM | SNB-75 0.13 µM

COc1cc2c(cc1OCCCN1C(=O)c3cccc4cccc(c34)C1=O)N=C[C@@H]1CCCN1C2=O
23.1 µM: HCT-15
inactive: BT-549 36.6 µM | U-251 39.5 µM | SK-MEL-28 > 65.9 µM | RXF 393 14.9 µM | CCRF-CEM 5.65 µM | DU-145 46.1 µM | SR 1.26 µM | EKVX > 100 µM | M14 36.2 µM | RPMI-8226 18.2 µM | SW-620 22.6 µM | SF-539 83.6 µM | CAKI-1 25.4 µM | HT-29 31.3 µM | OVCAR-4 31.7 µM | PC-3 44.8 µM | K562 22.5 µM | MDA-N 37.2 µM | SF-295 > 95.1 µM | MOLT-4 14 µM | MCF7 2.47 µM | SK-MEL-5 20.4 µM | HCT-116 36.1 µM | NCI/ADR-RES 41.8 µM | 786-0 21 µM | NCI-H226 34.4 µM | HOP-62 > 86.7 µM | SN12C 48.5 µM | OVCAR-8 36.6 µM | NCI-H460 22.3 µM | IGROV-1 12.2 µM | NCI-H522 14.3 µM | SF-268 39.6 µM | UACC-62 > 62.7 µM | HCC 2998 > 63.7 µM | Malme-3M 19.5 µM | SK-OV-3 > 100 µM | KM12 16.3 µM | NCI-H23 34 µM | HOP-92 22.2 µM | UACC-257 40.1 µM | COLO 205 18.5 µM | TK-10 30.3 µM | MDA-MB-231 > 55.8 µM | MDA-MB-435 40.1 µM | OVCAR-3 32.8 µM | SNB-19 > 92 µM | A549 > 100 µM | ACHN 25.7 µM | LOX IMVI 33.9 µM | UO-31 22.5 µM | SK-MEL-2 65.5 µM | OVCAR-5 > 89.1 µM | T47D 19.5 µM | A498 > 100 µM
